Reference: paper PMC5955599, “The HTLV-1 gp21 fusion peptide inhibits antigen specific T-cell activation in-vitro and in mice” (PLoS Pathogens, 2018)

System: MOG35-55–antigen specific T-cells
Assay: mRNA expression in activated T-cells (qRT-PCR)
Assay type: cell-based, mouse (C57Bl/6J)
Settings: 10μM; APC activation; RNA 24 hours following activation; normalized to Rpl13a; n≥3
Method: Fig 2 Modulation of Th1/Th2 gene expression and cytokine secretion from activated T-cells by the HTLV FP. MOG35-55–antigen specific T-cells were activated by irradiated MOG35-55 presenting APCs, in the presence of the HTLV FP at 10μM. (A) Total RNA was isolated 24 hours following activation and mRNA expression levels were determined by qRT-PCR. The values of each gene were normalized to Rpl13a as a housekeeping control. The HTLV FP reduces mRNA expression of Th1 specific genes (IFNG, LTA, and STAT4) and elevates mRNA expression of Th2 specific genes (IL4 and IL10). The data is presented as arbitrary units. n≥3. (B) Media was collected 24 hours following activation and secretion of cytokines was measured by ELISA assay. IFN-γ secretion is inhibited, IL4 secretion is elevated and TNFα is not affected by the HTLV FP. n = 12. One-way ANOVA was used for statistical analysis. *P<0.05; **P<0.01;***P<0.001.
(A-B) MOG35-55–antigen specific T-cells were activated by irradiated MOG35-55 presenting APCs, in the presence of the HTLV FP at 10μM. Total RNA was isolated 24 hours following activation and mRNA expression levels were determined by qRT-PCR. The values of each gene were normalized to Rpl13a as a housekeeping control. The HTLV FP reduces TBX21 (T-bet) mRNA expression and elevates GATA3 mRNA expression. The data is presented as arbitrary units. n≥3. (C-H) MOG35-55–antigen specific T-cells were activated by irradiated MOG35-55 presenting APCs, in the presence of either HTLV or HIV FP at 10μM. Samples were fixed in 4% PFA and stained with anti T-bet-APC and anti Gata3-FITC antibodies (C-D) 24, (E-F) 48 and (G-H) 72 hours following activation. Each time point is represented as cell count vs. APC or FITC fluorescence histogram. Analysis was performed using LSR-II flow cytometer (BD) and FlowJo cell analysis software (FlowJo, LLC). The HTLV FP reduces T-bet expression and elevates Gata3 expression. n = 3. One-way ANOVA was used for statistical analysis. ns, not significant; *P<0.05;** P<0.01.
Antigen-specific T-cells were plated onto round 12-well plates (10^6 cells/ well) and activated with 5x10^5 irradiated (25 gray) APC and 5μg/ml of MOG p35-55 in the presence or absence of relevant peptides. Total RNA from cells was isolated 24 hours following activation using the NucleoSpin RNA II kit (Macherey-Nagel, Duren, Germany). 2μg aliquot of the total RNA was reverse transcribed into cDNA using Bio-RT (Bio-Lab, Jerusalem, Israel), dNTPs and random hexamer primers. qRT-PCR was performed on Step One Plus, ABI instrument (Applied Biosystems, Grand Island, NY, USA) using SYBR Green PCR Master Mix (Quanta BioSciences, Gaithersburg, MD, USA). The values for the specific genes were normalized to Rpl13a (mouse) as housekeeping controls and the data are described in arbitrary units. PCR reactions were performed in duplicate. The specific primers used for qRT-PCR are available on request.

AVPVAVWLVSALAMGAGVAGGITGSMSLASGKS [HTLV FP, gp21 fusion peptide of HTLV-1, MT-2 isolate]
GATA3 mRNA expression: elevated Gata3 expression | IFNG mRNA level: reduced the mRNA levels | IL4 mRNA level: elevated the mRNA levels | IL10 mRNA level: elevated the mRNA levels | LTA mRNA level: reduced the mRNA levels | STAT4 mRNA level: reduced the mRNA levels | TBX21 (T-bet) mRNA expression: reduced TBX21 (T-bet) expression
